Consider one compound from patent US20050020516A1, “Effects of combined administration of farnesyl transferase inhibitors and signal transduction inhibitors” (Whitehead Institute for Biomedical Research, priority 2000, published 2005).

One assay has as its system BaF3-BCR/ABL cells. Kind of assay: Soft agar colony formation of BaF3-BCR/ABL cells. In kind it is cell-based, murine. The following applies: Mus musculus, 240 h; BaF3-BCR/ABL cells in soft agar, colonies counted day 10; read-out: IC50, inhibition of soft agar colony number.
Assay [1] relates to STI-571 resistant BaF3-BCR/ABL cells. Kind of assay: Proliferation in liquid culture, viable cells by dye exclusion. The class given is cell-based, murine. The note with it: 0.5 or 1.0 μM STI-571 or increasing concentrations of SCH66336. On the procedure:
Viable cells were assessed at daily intervals by dye exclusion.

Assay [2] concerns STI-571 resistant K562 cells. Put plainly: Proliferation in liquid culture. In kind it is cell-based, human. The note with it: STI-571 resistant K562, similar manner as parental line.
The test system of assay [3] is STI-571 resistant AR230 cells. Kind of assay: Proliferation in liquid culture. The class given is cell-based, human. The note with it: STI-571 resistant AR230, similar manner as parental line.
Assay [4] concerns STI-571 resistant LAMA84 cells. Put plainly: Proliferation in liquid culture. The class given is cell-based, human. The following applies: STI-571 resistant LAMA84, similar manner as parental line.
Assay [5] has as its system STI-571 resistant hematopoietic progenitors from CML patients. Kind of assay: Methylcellulose hematopoietic colony assay of primary cells from CML patients relapsed on STI-571. The class given is cell-based. The following applies: Homo sapiens, read-out: IC50, colony formation of STI-571 resistant hematopoietic progenitors. On the procedure:
Numbers are normalized to control (DMSO) and are presented as means +/−S.D. of duplicate plates.
Low density mononucleocytes were isolated from either fresh or cryo-preserved peripheral blood using Lymphoprep (Nycomed, Oslo, Norway). […] All clonogenic assays were performed in duplicate.

Assay [6] deals with STI-571 sensitive or resistant BCR/ABL positive cell lines (BaF3-BCR/ABL, K562, LAMA-84, AR230). Put plainly: Cell viability by trypan blue dye exclusion. The following applies: SCH66336 alone at concentrations up to 5 μM, STI-571 sensitive or resistant cell lines. The class given is cell-based. On the procedure:
FIGS. 9A-9E are graphs showing that SCH66336 and STI571 in combination induce apoptosis in STI571 resistant cells. […] Viability of cells was assessed at daily intervals by dye exclusion.

Assay [7] concerns parental BaF3-BCR/ABL cells. Kind of assay: Caspase-3 immunoblotting (cleavage of procaspase-3). The note with it: protein lysates of treated cells.
Protocol: (§1) Some cells were lysed and subjected to immunoblotting with caspase-3 antibody (FIG. 8A) or analyzed for annexin V staining (FIG. 8B) by FACS using the Apo-Alert kit (Clontech).
Cells were washed in cold PBS and lysed in NP-40 lysis buffer (1% NP-40, 150 mM NaCl, 20 mM Tris (pH 7.4), 10% glycerol, 10 mM NaVO3, 1 mM ZnCl2, 1 mM MgCl2, and 2 mM PMSF). Approximately 50 ug of protein were separated by SDS-PAGE and electrophoretically transferred to nitrocellulose membrane using standard protocols. Membranes were incubated with primary and secondary antibodies in TBST buffer (20 mM Tris-HCl [pH 7.4], 500 mM NaCl, 0.01% Tween 20) containing 5% dry milk. Immunoreactivity was detected by enhanced chemiluminescence.
Assay [8] relates to parental BaF3-BCR/ABL cells. Put plainly: Apoptosis by annexin V staining (ApoAlert Annexin V kit, FACS). The following applies: 2.0 uM SCH66336, 48 hours.
Protocol: as §1
Apoptosis was measured in cells after incubation with drugs by staining for annexin-positive cells using the ApoAlert Annexin V kit (Clontech, Palo Alto, Calif.). Flow cytometry analysis was performed using Cell Quest (Becton Dickinson, Franklin Lakes, N.J.).
For assay [9], the system named is STI-571 resistant clone of a BaF3-BCR/ABL. Put plainly: Soft agar colony formation of STI-571 resistant BaF3-BCR/ABL clone. The note with it: STI-571 resistant BaF3-BCR/ABL clone compared with parental cells.
Description: Macroscopic colonies were counted in duplicate plates on day 10. In some cases colony numbers were normalized by dividing the number of colonies under a given condition by the number of colonies formed in the presence of no drug (DMSO alone).

With `NC(=O)N1CCC(CC(=O)N2CCC([C@H]3c4ncc(Br)cc4CCc4cc(Cl)cc(Br)c43)CC2)CC1` [SCH66336], the results for the IC50 (in the assay with BaF3-BCR/ABL cells; in assay [5]) were around 100 nM and 250 to 500 nM, respectively. In [1], the “effect on growth / proliferation” value is listed as “dose-dependent inhibition of proliferation”. The effect on proliferation result in assay [2], in assay [3] and in [4] was “inhibits the proliferation” each time. Besides, in assay [6], the “effect on cell viability” value is on record as “little effect on cell viability”. The “levels of active caspase-3 (immunoblot)” value in [7] is “low levels of active caspase-3”. In addition, the “levels of annexin V staining” value in assay [8] is “Low levels of annexin V staining”. Besides, the “effect on soft agar colony formation of STI-571 resistant clone” value in assay [9] is “as sensitive, if not more so”.
